# Biological target: JAK2 (JH1 domain-catalytic, Y1007F, Y1008F) kinase (Homo sapiens (Human), UniProt O60674, Y1007F/Y1008F)
# Assay: JAK2 JH1 Domain Binding Assay
# Details: qPCR readout
# Method in brief: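 Competitive binding format: test compound, DNA-tagged JAK2 JH1 (Y1007F/Y1008F; HEK293-expressed NFkB fusion) and ligand-coated magnetic beads incubated 1 h at room temperature. Kinase retained on beads released with 0.5 μmol/L non-biotinylated ligand, then measured by qPCR.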
# Chain of JAK2 (JH1 domain-catalytic, Y1007F, Y1008F) kinase (O60674 849-1124 Y1007F/Y1008F): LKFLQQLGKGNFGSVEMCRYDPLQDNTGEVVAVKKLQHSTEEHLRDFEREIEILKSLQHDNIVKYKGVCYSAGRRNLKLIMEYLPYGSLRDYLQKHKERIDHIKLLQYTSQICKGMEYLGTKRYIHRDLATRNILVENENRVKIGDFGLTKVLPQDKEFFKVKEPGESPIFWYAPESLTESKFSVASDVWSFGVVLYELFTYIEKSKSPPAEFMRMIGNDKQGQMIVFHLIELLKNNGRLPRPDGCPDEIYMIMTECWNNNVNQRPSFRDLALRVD
row,Compound,Kd [nM]
1,"CN(C(=O)Nc1cc(C(F)(F)F)cn(C)c1=O)[C@H]1CCN(c2cnc3[nH]nc(OC4COC4)c3c2)C[C@H]1F [Example I-101-b, 1-((3R,4S)-3-fluoro-1-(3-(oxetan-3-yloxy)-1H-pyrazolo[3,4-b]pyridin-5-yl)piperidin-4-yl)-1-methyl-3-(1-methyl-2-oxo-5-(trifluoromethyl)-1,2-dihydropyridin-3-yl)urea]",1000 to 5000
2,"CN(C(=O)Nc1cc(C(F)(F)F)cn(C)c1=O)[C@@H]1CCN(c2cnc3[nH]nc(OC[C@H]4COCCO4)c3c2)C[C@@H]1F [Example I-102-a, 1-((3S,4R)-1-(3-(((R)-1,4-dioxan-2-yl)methoxy)-1H-pyrazolo[3,4-b]pyridin-5-yl)-3-fluoropiperidin-4-yl)-1-methyl-3-(1-methyl-2-oxo-5-(trifluoromethyl)-1,2-dihydropyridin-3-yl)urea]",< 10
3,"CN(C(=O)Nc1cc(C(F)(F)F)cn(C)c1=O)[C@H]1CCN(c2cnc3[nH]nc(OC[C@H]4COCCO4)c3c2)C[C@H]1F [Example I-102-b, 1-((3R,4S)-1-(3-(((R)-1,4-dioxan-2-yl)methoxy)-1H-pyrazolo[3,4-b]pyridin-5-yl)-3-fluoropiperidin-4-yl)-1-methyl-3-(1-methyl-2-oxo-5-(trifluoromethyl)-1,2-dihydropyridin-3-yl)urea]",< 10
4,"CN(C(=O)Nc1cc(C(F)(F)F)cn(C)c1=O)[C@H]1CCN(c2cnc3[nH]c(=O)n(C)c3c2)C[C@H]1F [Example I-103-a, 1-((3R,4S)-3-fluoro-1-(1-methyl-2-oxo-2,3-dihydro-1H-imidazo[4,5-b]pyridin-6-yl)piperidin-4-yl)-1-methyl-3-(1-methyl-2-oxo-5-(trifluoromethyl)-1,2-dihydropyridin-3-yl)urea]",< 10
5,"CN(C(=O)Nc1cc(C(F)(F)F)cn(C)c1=O)[C@@H]1CCN(c2cnc3[nH]c(=O)n(C)c3c2)C[C@@H]1F [Example I-103-b, 1-((3S,4R)-3-fluoro-1-(1-methyl-2-oxo-2,3-dihydro-1H-imidazo[4,5-b]pyridin-6-yl)piperidin-4-yl)-1-methyl-3-(1-methyl-2-oxo-5-(trifluoromethyl)-1,2-dihydropyridin-3-yl)urea]",< 10
6,"COCCOc1n[nH]c2ncc(N3CC[C@@H](N(C)C(=O)Nc4cc(C(F)(F)F)cn(C)c4=O)[C@@H](F)C3)cc12 [Example I-104-a, 1-((3S,4R)-3-fluoro-1-(3-(2-methoxyethoxy)-1H-pyrazolo[3,4-b]pyridin-5-yl)piperidin-4-yl)-1-methyl-3-(1-methyl-2-oxo-5-(trifluoromethyl)-1,2-dihydropyridin-3-yl)urea]",< 10
7,"COCCOc1n[nH]c2ncc(N3CC[C@H](N(C)C(=O)Nc4cc(C(F)(F)F)cn(C)c4=O)[C@H](F)C3)cc12 [Example I-104-b, 1-((3R,4S)-3-fluoro-1-(3-(2-methoxyethoxy)-1H-pyrazolo[3,4-b]pyridin-5-yl)piperidin-4-yl)-1-methyl-3-(1-methyl-2-oxo-5-(trifluoromethyl)-1,2-dihydropyridin-3-yl)urea]",< 10
8,"C[C@H]1C[C@@H](N(C)C(=O)Nc2cc(C(F)(F)F)cn(C)c2=O)CCN1c1cnc2[nH]ncc2c1 [Example I-105-a, 1-methyl-1-((2S,4S)-2-methyl-1-(1H-pyrazolo[3,4-b]pyridin-5-yl)piperidin-4-yl)-3-(1-methyl-2-oxo-5-(trifluoromethyl)-1,2-dihydropyridin-3-yl)urea]",< 10
9,"C[C@@H]1C[C@H](N(C)C(=O)Nc2cc(C(F)(F)F)cn(C)c2=O)CCN1c1cnc2[nH]ncc2c1 [Example I-105-b, 1-methyl-1-((2R,4R)-2-methyl-1-(1H-pyrazolo[3,4-b]pyridin-5-yl)piperidin-4-yl)-3-(1-methyl-2-oxo-5-(trifluoromethyl)-1,2-dihydropyridin-3-yl)urea]",< 10
10,"COc1n[nH]c2ncc(N3CC[C@@H](N(C)C(=O)Nc4cc(C(F)(F)F)cn(C)c4=O)[C@@H](OC)C3)cc12 [Example I-106-a, 1-((3S,4R)-3-methoxy-1-(3-methoxy-1H-pyrazolo[3,4-b]pyridin-5-yl)piperidin-4-yl)-1-methyl-3-(1-methyl-2-oxo-5-(trifluoromethyl)-1,2-dihydropyridin-3-yl)urea]",< 10
11,"COc1n[nH]c2ncc(N3CC[C@H](N(C)C(=O)Nc4cc(C(F)(F)F)cn(C)c4=O)[C@H](OC)C3)cc12 [Example I-106-b, 1-((3R,4S)-3-methoxy-1-(3-methoxy-1H-pyrazolo[3,4-b]pyridin-5-yl)piperidin-4-yl)-1-methyl-3-(1-methyl-2-oxo-5-(trifluoromethyl)-1,2-dihydropyridin-3-yl)urea]",< 10

# The next lines start with the values.
row,Kd [nM],Compound
1,< 10,"CN(C(=O)Nc1cc(C(F)(F)F)cn(C)c1=O)[C@@H]1CCN(c2cnc3[nH]nc(OC4CCOCC4)c3c2)C[C@@H]1F [Example I-107-a, 1-((3S,4R)-3-fluoro-1-(3-((tetrahydro-2H-pyran-4-yl)oxy)-1H-pyrazolo[3,4-b]pyridin-5-yl)piperidin-4-yl)-1-methyl-3-(1-methyl-2-oxo-5-(trifluoromethyl)-1,2-dihydropyridin-3-yl)urea]"
2,< 10,"CN(C(=O)Nc1cc(C(F)(F)F)cn(C)c1=O)[C@H]1CCN(c2cnc3[nH]nc(OC4CCOCC4)c3c2)C[C@H]1F [Example I-107-b, 1-((3R,4S)-3-fluoro-1-(3-((tetrahydro-2H-pyran-4-yl)oxy)-1H-pyrazolo[3,4-b]pyridin-5-yl)piperidin-4-yl)-1-methyl-3-(1-methyl-2-oxo-5-(trifluoromethyl)-1,2-dihydropyridin-3-yl)urea]"
3,10 to 50,"COc1n[nH]c2ncc(N3CC[C@@H](N(C)C(=O)Nc4cc(C(F)(F)F)cn(C)c4=O)[C@H](OC)C3)cc12 [Example I-108-a, 1-((3R,4R)-3-methoxy-1-(3-methoxy-1H-pyrazolo[3,4-b]pyridin-5-yl)piperidin-4-yl)-1-methyl-3-(1-methyl-2-oxo-5-(trifluoromethyl)-1,2-dihydropyridin-3-yl)urea]"
4,10 to 50,"COc1n[nH]c2ncc(N3CC[C@H](N(C)C(=O)Nc4cc(C(F)(F)F)cn(C)c4=O)[C@@H](OC)C3)cc12 [Example I-108-b, 1-((3S,4S)-3-methoxy-1-(3-methoxy-1H-pyrazolo[3,4-b]pyridin-5-yl)piperidin-4-yl)-1-methyl-3-(1-methyl-2-oxo-5-(trifluoromethyl)-1,2-dihydropyridin-3-yl)urea]"
5,10 to 50,"CO[C@@H]1CN(c2cnc3[nH]ncc3c2)CC[C@H]1N(C)C(=O)Nc1cc(C(F)(F)F)cn(C)c1=O [Example I-109-a, 1-((3R,4R)-3-methoxy-1-(1H-pyrazolo[3,4-b]pyridin-5-yl)piperidin-4-yl)-1-methyl-3-(1-methyl-2-oxo-5-(trifluoromethyl)-1,2-dihydropyridin-3-yl)urea]"
6,10 to 50,"CO[C@H]1CN(c2cnc3[nH]ncc3c2)CC[C@@H]1N(C)C(=O)Nc1cc(C(F)(F)F)cn(C)c1=O [Example I-109-b, 1-((3S,4S)-3-methoxy-1-(1H-pyrazolo[3,4-b]pyridin-5-yl)piperidin-4-yl)-1-methyl-3-(1-methyl-2-oxo-5-(trifluoromethyl)-1,2-dihydropyridin-3-yl)urea]"
7,< 10,"COCc1cc2nc(N3CC[C@@H](N(C)C(=O)Nc4cc(C(F)(F)F)cn(C)c4=O)C(F)(F)C3)cnc2[nH]1 [Example I-110-a, (R)-1-(3,3-difluoro-1-(6-(methoxymethyl)-5H-pyrrolo[2,3-b]pyrazin-2-yl)piperidin-4-yl)-1-methyl-3-(1-methyl-2-oxo-5-(trifluoromethyl)-1,2-dihydropyridin-3-yl)urea]"
8,< 10,"COCc1cc2nc(N3CC[C@H](N(C)C(=O)Nc4cc(C(F)(F)F)cn(C)c4=O)C(F)(F)C3)cnc2[nH]1 [Example I-110-b, (S)-1-(3,3-difluoro-1-(6-(methoxymethyl)-5H-pyrrolo[2,3-b]pyrazin-2-yl)piperidin-4-yl)-1-methyl-3-(1-methyl-2-oxo-5-(trifluoromethyl)-1,2-dihydropyridin-3-yl)urea]"
9,< 10,"COCc1cc2nc(N3CC[C@@H](N(C)C(=O)Nc4cc(C(F)(F)F)cn(C)c4=O)[C@@H](F)C3)cnc2[nH]1 [Example I-111-a, 1-((3S,4R)-3-fluoro-1-(6-(methoxymethyl)-5H-pyrrolo[2,3-b]pyrazin-2-yl)piperidin-4-yl)-1-methyl-3-(1-methyl-2-oxo-5-(trifluoromethyl)-1,2-dihydropyridin-3-yl)urea]"
10,< 10,"COCc1cc2nc(N3CC[C@H](N(C)C(=O)Nc4cc(C(F)(F)F)cn(C)c4=O)[C@H](F)C3)cnc2[nH]1 [Example I-111-b, 1-((3R,4S)-3-fluoro-1-(6-(methoxymethyl)-5H-pyrrolo[2,3-b]pyrazin-2-yl)piperidin-4-yl)-1-methyl-3-(1-methyl-2-oxo-5-(trifluoromethyl)-1,2-dihydropyridin-3-yl)urea]"
11,10 to 50,"CN(C(=O)Nc1cc(C(F)(F)F)cn(C)c1=O)C1CCN(c2cnc3[nH]n(C4CCOCC4)c(=O)c3c2)CC1 [Example I-112, 1-methyl-3-(1-methyl-2-oxo-5-(trifluoromethyl)-1,2-dihydropyridin-3-yl)-1-(1-(3-oxo-2-(tetrahydro-2H-pyran-4-yl)-2,3-dihydro-1H-pyrazolo[3,4-b]pyridin-5-yl)piperidin-4-yl)urea]"
12,50 to 1000,"COCc1cc2nc(N3CC[C@H](N(C)C(=O)Nc4cc(C(F)(F)F)cn(C)c4=O)[C@@H](OC)C3)cnc2[nH]1 [Example I-113-a, 1-((3S,4S)-3-methoxy-1-(6-(methoxymethyl)-5H-pyrrolo[2,3-b]pyrazin-2-yl)piperidin-4-yl)-1-methyl-3-(1-methyl-2-oxo-5-(trifluoromethyl)-1,2-dihydropyridin-3-yl)urea]"
13,1000 to 5000,"COCc1cc2nc(N3CC[C@@H](N(C)C(=O)Nc4cc(C(F)(F)F)cn(C)c4=O)[C@H](OC)C3)cnc2[nH]1 [Example I-113-b, 1-((3R,4R)-3-methoxy-1-(6-(methoxymethyl)-5H-pyrrolo[2,3-b]pyrazin-2-yl)piperidin-4-yl)-1-methyl-3-(1-methyl-2-oxo-5-(trifluoromethyl)-1,2-dihydropyridin-3-yl)urea]"
